Measured values taken from ChEMBL document CHEMBL1141637, “Synthesis and anti-inflammation evaluation of new C60 fulleropyrrolidines bearing biologically active xanthine” (2008).

Experiments:
J774.A1 [1] = test: Reduction of LPS-induced nitric oxide production in mouse J774A.1 cells at 10 uM after 3 hrs relative to control; type: functional; design: scale not given: the % may be the effect or the level left
J774.A1 [2] = test: Reduction of LPS-induced TNFalpha production in mouse J774A.1 cells at 10 uM after 3 hrs by ELISA relative to control; type: functional; design: scale not given: the % may be the effect or the level left

With `CC(=O)CCCCn1c(=O)c2c(ncn2C)n(C)c1=O` [PENTOXIFYLLINE] the Activity (J774.A1 [1]) was 33.9% and the Activity (J774.A1 [2]) was 7.5%.
